The text below walks through data of US12264156B2, “Compounds and pharmaceutical compositions thereof for the treatment of diseases” (GALAPAGOS NV, priority 2018, dated 2025).

Structures are written as SMILES. Read-outs that look alike come from different tables or passages of the source.

As usually defined, the IC50 is the concentration needed to halve the response being measured. A lower IC50 goes with higher potency. What is called EC50 is the midpoint of the concentration-response curve.

In one assay the target is T1, SIK2 (Homo sapiens, UniProt Q9H0K1).
T1 construct: purchased ThermoFisher Scientific PV4792
The assay can be described thus: ADP-Glo kinase assay, SIK2. The assay is classed as biochemical. To be noted: ADP-Glo SIK kinase assay. The procedure, abridged: (§1)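 Wells with 1% DMSO or 10 μM staurosporine (final) define the control window. The kinase reaction with substrate and ATP runs 120 min at RT, followed by ADP-Glo detection: ATP depletion (40 min) and ADP-derived luminescence (30 min).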
Background: ADP-Glo turns the ADP formed in a reaction into a luminescent signal.

A further assay has as its target T2, SIK1 (Homo sapiens, UniProt P57059).
T2 construct: purchased Carna Biosciences 02-131
The assay can be described thus: ADP-Glo kinase assay, SIK1. The class given is biochemical. Particulars: ADP-Glo SIK kinase assay. The procedure, abridged:
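Enzyme–substrate mix was started with ATP and incubated 120 min at RT. ADP formed was quantified by ADP-Glo: 40 min ATP depletion, then 30 min detection reagent converting ADP to ATP for luciferase luminescence, which rises with kinase activity. Controls: 1% DMSO and 10 μM staurosporine (final).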

The target of a further assay is T3, SIK3 (Homo sapiens, UniProt Q9Y2K2).
T3 construct: purchased SignalChem S12-11G-100
The assay can be described thus: ADP-Glo kinase assay, SIK3. To be noted: ADP-Glo SIK kinase assay. The class given is biochemical. The procedure, abridged: as §1

Assay [1] concerns LPS-induced TNFα in monocyte-derived macrophages (MdM). The assay can be described thus: MdM assay: LPS-triggered TNFα (ELISA). The assay is classed as cell-based, human. The method in brief: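 Compound added 1 h before LPS (200 ng/mL final) to day-10 macrophages derived from magnetically isolated CD14+ human blood monocytes, DMSO held at 0.2%. TNFα secreted over 20 h of stimulation quantified by ELISA against a standard curve.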

Setting [2] is: Homo sapiens, Macrophage, 20 h, monocyte-derived macrophages, LPS 200 ng/mL, supernatant after 20 h, read-out: TNFα EC50.

T3 sequence (Q9Y2K2 whole entry): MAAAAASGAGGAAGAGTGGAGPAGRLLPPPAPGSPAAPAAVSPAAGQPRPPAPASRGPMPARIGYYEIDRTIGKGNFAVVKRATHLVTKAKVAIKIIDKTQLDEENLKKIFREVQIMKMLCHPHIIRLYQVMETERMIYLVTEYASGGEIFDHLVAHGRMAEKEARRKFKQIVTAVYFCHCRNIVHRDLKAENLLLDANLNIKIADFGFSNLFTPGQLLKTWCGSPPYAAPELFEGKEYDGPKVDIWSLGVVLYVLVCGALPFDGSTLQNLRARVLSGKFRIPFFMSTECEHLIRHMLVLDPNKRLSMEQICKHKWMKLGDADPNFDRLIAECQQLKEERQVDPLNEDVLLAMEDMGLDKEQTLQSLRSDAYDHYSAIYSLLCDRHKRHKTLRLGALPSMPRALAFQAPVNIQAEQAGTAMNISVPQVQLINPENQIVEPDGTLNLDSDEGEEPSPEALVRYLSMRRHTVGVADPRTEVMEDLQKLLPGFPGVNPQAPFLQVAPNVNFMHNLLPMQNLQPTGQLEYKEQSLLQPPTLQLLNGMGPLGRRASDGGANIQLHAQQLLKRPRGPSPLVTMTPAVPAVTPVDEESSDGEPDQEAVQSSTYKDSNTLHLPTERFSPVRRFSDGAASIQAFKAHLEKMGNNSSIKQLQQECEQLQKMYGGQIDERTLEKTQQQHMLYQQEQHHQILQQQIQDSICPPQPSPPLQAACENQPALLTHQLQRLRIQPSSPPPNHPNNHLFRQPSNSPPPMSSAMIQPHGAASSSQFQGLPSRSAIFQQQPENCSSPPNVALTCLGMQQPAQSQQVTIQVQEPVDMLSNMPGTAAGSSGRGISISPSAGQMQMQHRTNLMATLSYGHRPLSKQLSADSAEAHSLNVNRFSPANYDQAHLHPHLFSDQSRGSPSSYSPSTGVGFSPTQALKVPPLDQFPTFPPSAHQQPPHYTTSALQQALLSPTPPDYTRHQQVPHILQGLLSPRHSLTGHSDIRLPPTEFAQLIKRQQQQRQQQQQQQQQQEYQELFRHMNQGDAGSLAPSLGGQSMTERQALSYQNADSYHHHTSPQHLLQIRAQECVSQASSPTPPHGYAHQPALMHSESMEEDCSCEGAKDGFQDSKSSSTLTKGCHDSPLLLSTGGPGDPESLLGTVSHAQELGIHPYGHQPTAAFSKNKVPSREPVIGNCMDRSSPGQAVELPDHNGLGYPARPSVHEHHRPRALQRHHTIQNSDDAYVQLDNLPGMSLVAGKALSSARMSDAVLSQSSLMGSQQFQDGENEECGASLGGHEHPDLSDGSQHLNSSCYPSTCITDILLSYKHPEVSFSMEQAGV
T1 sequence (Q9H0K1 whole entry): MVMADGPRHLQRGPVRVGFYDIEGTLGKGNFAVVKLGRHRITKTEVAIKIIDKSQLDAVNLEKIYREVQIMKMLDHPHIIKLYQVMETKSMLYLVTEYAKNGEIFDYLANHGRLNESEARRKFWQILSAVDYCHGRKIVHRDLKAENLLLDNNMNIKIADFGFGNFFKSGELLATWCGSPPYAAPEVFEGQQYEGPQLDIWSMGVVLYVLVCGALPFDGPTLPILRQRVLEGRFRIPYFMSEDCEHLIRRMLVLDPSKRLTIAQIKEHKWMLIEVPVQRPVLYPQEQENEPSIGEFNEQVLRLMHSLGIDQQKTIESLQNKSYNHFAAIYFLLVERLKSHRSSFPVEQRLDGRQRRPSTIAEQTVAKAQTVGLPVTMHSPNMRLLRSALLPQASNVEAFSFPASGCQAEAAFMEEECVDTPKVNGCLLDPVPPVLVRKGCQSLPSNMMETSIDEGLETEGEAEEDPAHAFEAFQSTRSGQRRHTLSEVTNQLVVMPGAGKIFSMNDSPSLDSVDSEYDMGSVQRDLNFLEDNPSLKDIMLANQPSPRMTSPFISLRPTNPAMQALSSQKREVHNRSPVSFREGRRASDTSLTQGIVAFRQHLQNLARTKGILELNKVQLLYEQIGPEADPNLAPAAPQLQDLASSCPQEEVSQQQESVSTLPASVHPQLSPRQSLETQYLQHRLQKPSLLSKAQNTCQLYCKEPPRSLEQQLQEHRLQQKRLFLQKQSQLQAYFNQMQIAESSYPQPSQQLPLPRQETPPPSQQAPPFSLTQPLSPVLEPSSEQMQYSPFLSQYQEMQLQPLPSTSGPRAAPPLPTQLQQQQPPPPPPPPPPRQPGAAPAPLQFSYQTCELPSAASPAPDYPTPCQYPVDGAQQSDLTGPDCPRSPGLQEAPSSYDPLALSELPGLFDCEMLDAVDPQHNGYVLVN
T2 sequence (P57059 whole entry): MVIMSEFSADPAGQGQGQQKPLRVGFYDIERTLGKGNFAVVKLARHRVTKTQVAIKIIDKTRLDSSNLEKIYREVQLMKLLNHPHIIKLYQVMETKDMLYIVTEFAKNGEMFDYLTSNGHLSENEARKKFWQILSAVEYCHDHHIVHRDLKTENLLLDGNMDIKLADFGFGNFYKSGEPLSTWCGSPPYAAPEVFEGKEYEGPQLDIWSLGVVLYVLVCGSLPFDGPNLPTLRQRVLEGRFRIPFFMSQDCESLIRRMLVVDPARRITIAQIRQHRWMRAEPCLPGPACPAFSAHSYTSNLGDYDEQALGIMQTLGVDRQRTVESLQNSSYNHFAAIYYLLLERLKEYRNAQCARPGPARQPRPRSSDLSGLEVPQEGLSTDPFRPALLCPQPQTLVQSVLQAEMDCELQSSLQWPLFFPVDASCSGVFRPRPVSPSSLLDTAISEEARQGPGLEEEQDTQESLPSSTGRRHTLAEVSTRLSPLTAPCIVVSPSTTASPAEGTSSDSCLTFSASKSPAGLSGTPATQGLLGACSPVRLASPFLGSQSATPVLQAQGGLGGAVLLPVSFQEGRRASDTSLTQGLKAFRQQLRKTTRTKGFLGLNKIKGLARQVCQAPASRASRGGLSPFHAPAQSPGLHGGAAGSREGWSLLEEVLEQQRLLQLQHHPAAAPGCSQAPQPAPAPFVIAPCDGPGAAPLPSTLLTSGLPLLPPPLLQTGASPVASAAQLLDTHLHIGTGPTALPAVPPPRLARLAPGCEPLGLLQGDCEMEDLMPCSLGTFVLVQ

As for `COc1cc(-c2cnc3cc(OCc4cnco4)ccn23)cc2c1C(=O)N(CC(F)(F)F)CC2` [compound 126, 8-methoxy-6-[7-(oxazol-5-ylmethoxy)imidazo[1,2-a]pyridin-3-yl]-2-(2,2,2-trifluoroethyl)-3,4-dihydroisoquinolin-1-one], the IC50 at SIK2 lay within 0.01 to 10 nM; at SIK1, 100 to 500 nM; on SIK3, 0.01 to 10 nM. In assay [1] (setting [2]), the EC50 lay within 100 to 1000 nM.
As to `COc1cc(-c2cnc3cc(OC[C@@H]4CN(C)CCO4)ccn23)cc2c1C(=O)N(CC(F)(F)F)CC2` [compound 191, 8-methoxy-6-[7-[[(2S)-4-methylmorpholin-2-yl]methoxy]imidazo [1,2-a]pyridin-3-yl]-2-(2,2,2-trifluoroethyl)-3,4-dihydroisoquinolin-1-one], the 50% inhibitory concentration (IC50) was in the range of 0.01 to 10 nM against SIK2, 100 to 500 nM on SIK1 and 0.01 to 10 nM against SIK3. Further, the EC50 in assay [1] (setting [2]) fell in the range of 100 to 1000 nM.
With `COc1cc(-c2cnc3cc(OCC4(F)CN(C(=O)OC(C)(C)C)C4)ccn23)cc2c1C(=O)N(CC(F)(F)F)CC2` [compound 248, tert-butyl 3-fluoro-3-[[3-[8-methoxy-1-oxo-2-(2,2,2-trifluoroethyl)-3,4-dihydroisoquinolin-6-yl]imidazo[1,2-a]pyridin-7-yl]oxymethyl]azetidine-1-carboxylate], the IC50 against SIK2 lay in the range of 0.01 to 10 nM; against SIK1, 100 to 500 nM; at SIK3, 0.01 to 10 nM. Also, the EC50 in assay [1] (setting [2]) lay within 100 to 1000 nM.
On to `COc1cc(-c2cnc3cc(OCCOCCN4CCCCC4)ccn23)cc(OC(F)F)c1C(=O)NC1CC1` [compound 305], for which the results for the IC50 against SIK2, at SIK1 and on SIK3 were 0.01 to 10 nM, 10 to 100 nM and 0.01 to 10 nM, respectively. For the same compound, the EC50 in assay [1] (setting [2]) was in the range of 100 to 1000 nM.
As for `COc1cc(-c2cnc3cc(OCCN4CCOC[C@@H]4C)ccn23)cc(OC(F)F)c1C(=O)NC1CC1` [compound 233, N-cyclopropyl-2-(difluoromethoxy)-6-methoxy-4-[7-[2-[(3S)-3-methylmorpholin-4-yl]ethoxy]imidazo[1,2-a]pyridin-3-yl]benzamide], the results for the IC50 on SIK2, on SIK1 and on SIK3 were 0.01 to 10 nM, 10 to 100 nM and 0.01 to 10 nM, respectively. Also, the EC50 in assay [1] (setting [2]) is 100 to 1000 nM.
For `COc1cc(-c2cnc3cc(OC[C@H]4CCCN4C)ccn23)cc2c1C(=O)N(CC(F)(F)F)CC2` [compound 124, 8-methoxy-6-[7-[[(2R)-1-methylpyrrolidin-2-yl]methoxy]imidazo[1,2-a]pyridin-3-yl]-2-(2,2,2-trifluoroethyl)-3,4-dihydroisoquinolin-1-one], the IC50 is 0.01 to 10 nM against SIK2, greater than 500 nM against SIK1 and 0.01 to 10 nM against SIK3. The EC50 in assay [1] (setting [2]) lay in the range of 100 to 1000 nM.
Regarding `COc1cc(-c2cnc3cc(OCCN4CCCCC4)ccn23)cc2c1C(=O)N(CC(F)(F)F)CC2` [compound 40, 8-methoxy-6-[7-[2-(1-piperidyl)ethoxy]imidazo [1,2-a]pyridin-3-yl]-2-(2,2,2-trifluoroethyl)-3,4-dihydroisoquinolin-1-one], the 50% inhibitory concentration (IC50) is 0.01 to 10 nM at SIK2, greater than 500 nM on SIK1 and 0.01 to 10 nM against SIK3. For the same compound, in assay [1] (setting [2]), the concentration for a half-maximal effect (EC50) was 100 to 1000 nM.
On to `CCN(CC)CCOc1ccn2c(-c3cc(OC)c(C(=O)NC4CC4)c(OC(F)F)c3)cnc2c1` [compound 107, N-cyclopropyl-4-[7-[2-(diethylamino)ethoxy]imidazo[1,2-a]pyridin-3-yl]-2-(difluoromethoxy)-6-methoxy-benzamide], for which the results for the IC50 on SIK2, against SIK1 and at SIK3 were 0.01 to 10 nM, 100 to 500 nM and 0.01 to 10 nM, respectively. Further, the EC50 in assay [1] (setting [2]) was 100 to 1000 nM.
For `COc1cc(-c2cnc3cc(OCCN4CCOC[C@@H]4C)ccn23)cc2c1C(=O)N(CC(F)(F)F)CC2` [Cpd 257, 8-methoxy-6-[7-[2-[(3S)-3-methylmorpholin-4-yl]ethoxy]imidazo[1,2-a]pyridin-3-yl]-2-(2,2,2-trifluoroethyl)-3,4-dihydroisoquinolin-1-one], the IC50 fell in the range of 10 to 100 nM against SIK2, 100 to 500 nM against SIK1 and 0.01 to 10 nM on SIK3. Besides, the EC50 in assay [1] (setting [2]) lay in the range of 100 to 1000 nM.
`COc1cc(-c2cnc3cc(OC(C)C(F)(F)F)ccn23)cc(OC(F)F)c1C(=O)NC1CC1` (centres unmarked) [compound 45, N-cyclopropyl-2-(difluoromethoxy)-6-methoxy-4-[7-(2,2,2-trifluoro-1-methyl-ethoxy)imidazo[1,2-a]pyridin-3-yl]benzamide]: the IC50 lay in the range of 10 to 100 nM against SIK2, 100 to 500 nM against SIK1 and 0.01 to 10 nM at SIK3. Besides, the EC50 in assay [1] (setting [2]) fell in the range of 100 to 1000 nM.
The matching figures for `COc1cc(-c2cnc3cc(OC[C@H]4COCCO4)ccn23)cc2c1C(=O)N(CC(F)(F)F)CC2` [Cpd 86, 6-[7-[[(2R)-1,4-dioxan-2-yl]methoxy]imidazo[1,2-a]pyridin-3-yl]-8-methoxy-2-(2,2,2-trifluoroethyl)-3,4-dihydroisoquinolin-1-one]: 10 to 100 nM, 100 to 500 nM, 0.01 to 10 nM and 100 to 1000 nM.
As to `COc1cc(-c2cnc3cc(OCC(O)CN4CCOCC4)ccn23)cc(OC(F)F)c1C(=O)NC1CC1` (single isomer, unassigned) [Cpd 386, N-cyclopropyl-2-(difluoromethoxy)-4-[7-(2-hydroxy-3-morpholino-propoxy)imidazo[1,2-a]pyridin-3-yl]-6-methoxy-benzamide], the concentration for half-maximal inhibition (IC50) at SIK2 was in the range of 0.01 to 10 nM; against SIK1, 10 to 100 nM; at SIK3, 0.01 to 10 nM. Moreover, in assay [1] (monocyte-derived macrophages, LPS 200 ng/mL, supernatant after 20 h, read-out: TNFα EC50), the EC50 is 100 to 1000 nM.
Regarding `COc1cc(-c2cnc3cc(OCCN4CCOCC4)ccn23)cc2c1C(=O)N(CC(F)(F)F)CC2` [Cpd 88, 8-methoxy-6-[7-(2-morpholinoethoxy)imidazo [1,2-a]pyridin-3-yl]-2-(2,2,2-trifluoroethyl)-3,4-dihydroisoquinolin-1-one], in assay [1] (Homo sapiens, Macrophage, 20 h, read-out: TNFα EC50 (nM)), the EC50 was in the range of 100 to 1000 nM.
Regarding `COc1cc(-c2cnc3cc(OCCCN(C)C)ccn23)cc(OC(F)F)c1C(=O)NC1CC1` [Cpd 13], the IC50 lay within 0.01 to 10 nM against SIK2, 10 to 100 nM against SIK1 and 0.01 to 10 nM against SIK3. In assay [1] (setting [2]), the EC50 lay in the range of 0.1 to 100 nM.
As for `COc1cc(-c2cnc3cc(OCC(C)(C)N)ccn23)cc(OC(F)F)c1C(=O)NC1CC1` [compound 104, 4-[7-(2-amino-2-methyl-propoxy)imidazo[1,2-a]pyridin-3-yl]-N-cyclopropyl-2-(difluoromethoxy)-6-methoxy-benzamide], the half-inhibitory concentration (IC50) on SIK2 is 0.01 to 10 nM; against SIK1, 100 to 500 nM; on SIK3, 0.01 to 10 nM. The EC50 in assay [1] (setting [2]) was 1000 to 5000 nM.
For `COc1cc(-c2cnc3cc(OCCCN4CC(O)C4)ccn23)cc(OC(F)F)c1C(=O)NC1CC1` [Cpd 286, N-cyclopropyl-2-(difluoromethoxy)-4-[7-[3-(3-hydroxyazetidin-1-yl)propoxy]imidazo[1,2-a]pyridin-3-yl]-6-methoxy-benzamide], the values for the IC50 at SIK2, at SIK1 and at SIK3 were 0.01 to 10 nM, 10 to 100 nM and 0.01 to 10 nM, respectively. In assay [1] (setting [2]), the EC50 lay within 1000 to 5000 nM.
For `COc1cc(-c2cnc3cc(OCCCN4CCC5(CC4)CN(C)C(=O)O5)ccn23)cc(OC(F)F)c1C(=O)NC1CC1` [compound 325, N-cyclopropyl-2-(difluoromethoxy)-6-methoxy-4-[7-[3-(3-methyl-2-oxo-1-oxa-3,8-diazaspiro[4.5]decan-8-yl)propoxy]imidazo[1,2-a]pyridin-3-yl]benzamide], the IC50 lay in the range of 0.01 to 10 nM against SIK2, 10 to 100 nM on SIK1 and 0.01 to 10 nM against SIK3. Further, in assay [1] (setting [2]), the EC50 was in the range of 0.1 to 100 nM.
